Measurements published in PubChem BioAssay (NCI).
Where “and” joins values, the source holds several entries; their conditions need not be identical. Equal values may be shown once.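 Where inhibition never reached the appropriate level, the endpoint shown equals the highest concentration tested. Otherwise, values were interpolated linearly from a five-concentration, 48-hour dose response in 96-well plates. Here, GI50 denotes the concentration required for 50% inhibition of growth. TGI: total growth inhibition.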

Legend:
Test in all cases: NCI-60 cell line screen, 48 h
KM20L2 colon = system: KM20L2 colon
NCI-H23 lung = system: NCI-H23 lung
U251 CNS = system: U251 CNS
SK-MEL-2 melanoma = system: SK-MEL-2 melanoma
SK-MEL-5 melanoma = system: SK-MEL-5 melanoma
RXF 393 renal = system: RXF 393 renal
SNB-78 CNS = system: SNB-78 CNS
HOP-92 NSCLC = system: HOP-92 NSCLC
OVCAR-5 ovarian = system: OVCAR-5 ovarian
HS 578T breast = system: HS 578T breast
MDA-MB-231 breast = system: MDA-MB-231 breast

Row | Structure (SMILES) | TGI (KM20L2 colon) [µM] | TGI (NCI-H23 lung) [µM] | TGI (U251 CNS) [µM] | TGI (SK-MEL-2 melanoma) [µM] | TGI (SK-MEL-5 melanoma) | TGI (RXF 393 renal) [µM] | TGI (SNB-78 CNS) [µM] | TGI (HOP-92 NSCLC) [µM] | TGI (OVCAR-5 ovarian) [µM] | TGI (HS 578T breast) [µM] | GI50 (RXF 393 renal) [µM] | TGI (MDA-MB-231 breast) [µM] | GI50 (OVCAR-5 ovarian) [µM] | GI50 (SK-MEL-5 melanoma)
1 | c1c(N2CCOCC2)ssc1=[N+]1CCOCC1 | > 100 | > 100 | > 100 | > 100 | > 100 µM | > 100 | > 100 | > 100 | > 100 |  |  |  |  | 
2 | CC(=O)OC1CC2(O)C(CCC3(C)C(c4ccc(=O)oc4)CCC32O)C2(C)C1=CC(O)C1OC12 (configuration not stated) | 0.533 | 0.0618 | 0.281 | 0.222 | 0.0435 µM | 0.0324 | 0.279 | 0.157 | 0.772 |  |  |  |  | 
3 | C=C1C[C@@H]2CC[C@@]34C[C@H]5O[C@H]6[C@@H](O3)[C@H]3O[C@H](CC[C@@H]3O[C@H]6[C@H]5O4)CC(=O)C[C@@H]3[C@@H](OC)[C@@H](C[C@H](O)CN)O[C@H]3C[C@H]3O[C@@H](CC[C@@H]1O2)C[C@@H](C)C3=C |  | 0.173 | > 0.199 | > 0.167 | 0.043 µM |  |  | > 1 | > 1 | > 0.187 | 0.00255 | 0.087 | 0.00251 | 
4 | Cc1cc(S(=O)(=O)Nc2n[nH]c(Nc3ccccc3)n2)c(SCC(=O)O)cc1Cl |  | > 100 | > 100 | > 100 | > 100 µM | > 100 |  | > 100 | > 100 | > 100 |  | > 100 |  | 
5 | O=CN1CCN(C(=O)c2ccco2)C1=S |  | 40.4 | 32.5 | 40.6 | 29.1 µM | 20.1 |  | 18.7 | 37.7 | > 100 |  | 33.9 |  | 
6 | CCOc1ccc(N=Nc2ccc3cc(/C(C)=N/NC(=O)/C(C#N)=C\c4ccc(N(CCC#N)CCC#N)cc4)c(=O)oc3c2)cc1 |  | > 10 | > 10 | > 10 | > 10 µM | > 10 |  | > 10 | > 10 | > 10 |  | > 10 |  | 
7 | O=C1/C(=C/c2ccncc2)C(n2cccc2)c2c(Br)sc(Br)c21 (configuration not stated) |  | 11.6 | 4.86 | 6.56 | 27.6 µM | 3.96 |  | 7.83 | 29.2 | 18.1 |  | 4.96 |  | 
8 | CCOC(=O)Cn1nnc2cc(Nc3c(C)[n+]([O-])c4cc(F)c(OCC)cc4[n+]3[O-])ccc21 |  | > 100 | > 100 | > 100 | > 100 µM | > 100 |  | 49.5 | > 100 | > 100 |  | > 100 |  | 
9 | Cc1ccc(S(=O)(=O)c2c(O)c3ccc(O)c(C)c3oc2=O)cc1 |  | > 100 | > 100 | > 100 | > 100 µM | > 100 |  | > 100 | > 100 | > 100 |  | > 100 |  | 
10 | O=C(/C=C\Nc1ccccc1O)C(F)(F)F |  | > 100 | > 100 | > 100 | 53.5 µM | > 100 |  | > 100 | > 100 | > 100 |  | > 100 |  | 
11 | O=[N+]([O-])/C(Cl)=C(/C(Cl)=C(Cl)Cl)N1CCCCC1 |  | 22.2 | 26.8 | 48 | 20.2 µM | 20.6 |  | 30.2 | 29.2 | 64.4 |  | 41.6 |  | 
12 | CC(=O)OCC(=O)O[C@@H]1[C@H]2[C@@H](OC(=O)c3ccccc3)[C@@H](C)C[C@]2(O)[C@H](OC(C)=O)[C@@]2(C)C[C@]1(OC(C)=O)C[C@H]1C(=O)C(C)(C)[C@@H](OC(C)=O)[C@@H]12 |  | > 25 | > 25 | > 25 | > 25 µM | > 25 |  | > 25 | > 15.7 | > 25 |  | > 25 |  | 
13 | CCOc1ccc(NCC2CC/C(=C\C=C\c3ccccc3)C2=O)cc1 (configuration not stated) |  | 39.3 | 35.5 | > 100 | 30.7 µM | 29.6 |  | 45.5 | 53.4 | 65.2 |  | 24.7 |  | 
14 | CC[N+]1(C)CCC(O)(c2ccc(C)cc2)C(C(=O)c2ccc(C)cc2)C1 (configuration not stated) |  | > 100 | > 100 | > 100 | > 100 µM | 84.9 |  | 46.2 | > 100 | > 100 |  | 62.3 |  | 
15 | Cc1cccc(NS(=O)(=O)c2ccc(N=Nc3c(O)c(C(=O)O)cc4ccccc34)cc2)n1 |  | > 100 | > 100 | > 100 | > 100 µM | > 100 |  | > 100 | > 100 | > 100 |  | > 100 |  | 
16 | COc1ccc(C2Oc3c(OC)cc(CCCO)cc3C2CO)cc1OC (configuration not stated) |  | > 100 | > 100 | > 100 | > 100 µM and 31.1 µM | > 100 |  | > 100 | > 100 | > 100 |  | > 100 |  | 36 µM and 12 µM
17 | Cc1nc(SCC(N)=O)c2sc(=S)n(-c3ccccc3)c2n1 |  | > 10 | > 10 | > 10 | > 10 µM | > 10 |  | > 10 | > 10 | > 10 |  | > 10 |  | 
18 | NCCN(CCN(C(=O)Nc1ccccc1)c1ccccc1)C(=O)Nc1ccccc1 |  | 63 | > 100 | 45.2 | 43.1 µM | 34.5 |  | 44.2 | 45.6 | 56 |  | > 100 |  | 
19 | CNC(=S)NNc1ncnc2c1c(-c1ccc(Cl)cc1)cn2-c1ccc(C)cc1 |  | 28.2 | 24.1 | 27.7 | 20.8 µM | 32.3 |  | 30.8 | 29 | 57.8 |  | 21.7 |  | 
20 | O=C1CC(c2ccccc2Cl)C2(C(=O)NC(=O)NC2=O)C(c2ccccc2Cl)C1 (configuration not stated) |  | > 100 | > 100 | > 100 | > 100 µM | 85.2 |  | > 100 | > 100 | > 100 |  | > 100 |  | 
21 | CC1(C)OC[C@@H](C[C@H](O)COCc2ccccc2)O1 |  | > 100 | > 100 | > 100 | > 100 µM | > 100 |  | > 100 | > 100 | > 100 |  | > 100 |  | 
22 | O=C1CS/C(=N/N=C/c2cn(Cc3ccc(Cl)cc3Cl)c3ccccc23)N1 |  | > 100 | 37.2 | 74.7 | > 100 µM | 77.2 |  | > 100 | > 100 | 83.6 |  | 48 |  | 
23 | CCCCCCCCCCCCNC(=O)CCC(NC(=O)c1ccc(N(C)Cc2cnc3nc(N)nc(N)c3n2)cc1)C(=O)NCCCCCCCCCCCC (configuration not stated) |  | > 100 | 24.7 | > 100 | > 100 µM | 43.3 |  | 30.9 | > 100 | > 100 |  | > 100 |  | 
24 | Clc1cc(C(c2cc(Cl)sc2Cl)c2cc(Cl)sc2Cl)c(Cl)s1 |  | > 100 | > 100 | > 100 | > 100 µM | > 100 |  | > 100 | > 100 | > 100 |  | > 100 |  | 
25 | CCCO/N=[N+](\[O-])N(CC)CC | > 100 | > 100 | > 100 | > 100 | > 100 µM | > 100 | > 100 | > 100 | > 100 |  |  |  |  | 
